Series [1] addresses T1, (human) A2A adenosine receptor (Homo sapiens, UniProt P29274).
T1 construct: purchased PerkinElmer Research Products (Boston, Mass.); host or cells: HEK-293 cell membranes, stably transfected
Briefly: Radioligand binding test ([3H]-CGS21680 displacement). Particulars: for Ki: calculated from IC50 by Cheng-Prusoff equation, [S] 25 nM, Km 22 nM; for IC50: hA2A HEK-293 cell membrane, [3H]-CGS21680 25 nM, 25° C. 90 minutes. Here is the method:
[3H]-CGS21680 (2-[p-(2-carboxyethyl)phenylethylamino]-5′-N-ethylcarboxamido-adenosine, [carboxy-1-ethyl-3H(N)]—; 250 μCi): purchased from PerkinElmer Research Products (Boston, Mass.);
The cell membrane stably transfected with (human) A2A adenosine receptor was prepared in HEK-293 cells, and the cell membrane was obtained from PerkinElmer Research Products (Boston, Mass.);
CGS 21680 (2-[p-(2-carboxyethyl)phenylethylamino]-5′-N-ethylcarboxamidoadenosine) was purchased from Selleck (Shanghai, CN);
The A2A adenosine receptors used were all expressed in the cell membrane. Each compound was continuously diluted 3 times with DMSO (Solarbio, D8371-250 ml) to generate compound source plates with 10 different concentrations (10 μM, 3.3 μM, 1.1 μM, 0.37 μM, 0.12 μM, 0.0412 μM, 0.0137 μM, 0.0046 μM, 0.0015 μM, 0.0005 μM), 250 nL of compounds were added to 384-well Opti-plate, sealed with parafilm; 1 mL of assay buffer (containing 50 mM Tris-HCl, pH 7.4, 10 mM MgCl2, 1 mM EDTA, 1 μg/mL adenosine deaminase) was added to 20 U hA2A HEK-293 cell membrane for dilution, 0.75 μCi [3H]-CGS21680 (final 25 nM) was added to the diluted cell membrane and mixed well; 50 μL of the prepared cell membrane dilution was transferred to the 384-well Opti-plate containing fresh compounds and incubated at 25° C. for 90 minutes; 100 μL of 0.5% polyethyleneimine solution (PEI) was added to UNIFILTER-96 GF/B filter plate, and soaked at 4° C. for 90 minutes, then the UNIFILTER-96 GF/B filter plate was washed twice with 500 μL of washing buffer per well (washing buffer contained 50 mM Tris-HCl pH 7.4, 154 mM NaCl) which was transferred by Cell Harvester; then, the mixture system in the Opti-plate was transferred to the cleaned UNIFILTER-96 GF/B filter plate, and then the UNIFILTER-96 GF/B filter plate was washed 9 times with 500 μL of washing buffer per well (washing buffer contained 50 mM Tris-HCl, pH 7.4, 154 mM NaCl), and incubated for 3 minutes in a 37° C. incubator; 40 μL of ULTIMA GOLD scintillation fluid (Perkin Elmer, Cat #77-16061) was added to each well, MicroBeta liquid scintillation counter (PerkinElmer) was used to read CPM (count per minute) value. The specific binding percentage of [3H]CGS21680 was calculated according to the CPM value, % specific binding of [3H]CGS21680=(CPMsample−CPMLow Control)/(CPMHigh Control−CPMLow Control)*100, wherein High Control was 0.5% DMSO, Low Control was 100 μM CGS21680. According to the compound concentration and the specific binding percentage of [3H]CGS21680, curve fitting was performed to calculate IC50 value.
The binding inhibition constant (Ki) value was calculated from the IC50 value according to the Cheng-Prusoff equation, Ki=IC50/(1+[S]/Km), wherein [S] was radioligand concentration (25 nM), and Km was human A2AAR dissociation constant of [3H]CGS21680 (22 nM).

Series [2] concerns the target human adenosine receptor A2A (hADORA2A-HEK293 cells) (Homo sapiens, UniProt P29274). Briefly: cAMP test of A2A adenosine receptor. Type of series: cell-based. Particulars: LANCE Ultra cAMP kit. The text has this:
DMEM/F12, G418, Penicillin-Streptomycin, Versene solution, HEPES, Hank's buffer saline aqueous solution, PBS (pH 7.4, 1×, sterile), FBS, 7.5% BSA stabilizer, Rolipram, NECA, were purchased from Gibico, Hyclone and Sigma, respectively;
LANCE® Ultra cAMP kit (containing Eu-cAMP tracer, Ulight-anti-cAMP reagent, cAMP detection buffer) and hADORA2A-HEK293 cells were purchased from PerkinElmer Research Products (Boston, Mass.);
The cells stably expressing human adenosine receptor A2A (hADORA2A-HEK293 cells) were cultured in DMEM/F12 medium containing 10% FBS, 1× Penicillin-Streptomycin and 400 μg/ml G418 in the environment of 37° C. and 5% CO2. Before the experiment, the cells were digested with Versene solution. […] EnVison microplate reader (EnVision multimode plate reader, PerkinElmer) was used to determine the level of cyclic adenosine monophosphate in the final solution (λex=320 nm, λem=665 nm & 615 nm). The EC50 (nM) value that stimulated the production level of cyclic adenosine monophosphate when the test compound interacted with the A2A adenosine receptor was calculated. The A2A receptor agonist titer of the compound was expressed as the EC50 (nM) value that stimulated the production level of cyclic adenosine monophosphate when the compound interacted with the A2A adenosine receptor. […]

Molecules are shown by their SMILES.

T1 sequence (P29274 whole entry): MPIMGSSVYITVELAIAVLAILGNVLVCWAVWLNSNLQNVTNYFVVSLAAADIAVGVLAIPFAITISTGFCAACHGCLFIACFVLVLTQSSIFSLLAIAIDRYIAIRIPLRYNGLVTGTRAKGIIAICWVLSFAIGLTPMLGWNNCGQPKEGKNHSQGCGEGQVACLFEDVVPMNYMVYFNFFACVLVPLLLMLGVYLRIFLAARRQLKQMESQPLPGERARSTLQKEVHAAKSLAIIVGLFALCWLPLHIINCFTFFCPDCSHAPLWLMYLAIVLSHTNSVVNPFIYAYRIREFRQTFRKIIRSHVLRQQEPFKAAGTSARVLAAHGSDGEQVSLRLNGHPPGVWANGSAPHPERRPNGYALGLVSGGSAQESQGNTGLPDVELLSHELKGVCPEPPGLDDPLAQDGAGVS
Chain of human adenosine receptor A2A (hADORA2A-HEK293 cells) (P29274 whole entry): as above

`Nc1nc(-c2ccc(NC(=O)Nc3cccnc3)cc2)nc2c1ncn2[C@@H]1O[C@H](CO)[C@@H](O)[C@H]1O` [Compound 1, 1-{4-{6-amino-9-[(2R,3R,4S,5R)-3,4-dihydroxy-5-(hydroxymethyl)tetrahydrofuran-2-yl]-9H-purin-2-yl}phenyl}-3-(pyridin-3-yl)urea] yielded a melting point of 230 °C. Moreover, in series [1], the Ki is 778 nM and the IC50 came out at 1660 nM.

`Nc1nc(-c2ccc(NC(=O)Nc3ccc(CO)cc3)cc2)nc2c1ncn2[C@@H]1O[C@H](CO)[C@@H](O)[C@H]1O` [Compound 2, 1-{4-{6-amino-9-[(2R,3R,4S,5R)-3,4-dihydroxy-5-(hydroxymethyl)tetrahydrofuran-2-yl]-9H-purin-2-yl}phenyl}-3-[4-(hydroxymethyl)phenyl]urea] displayed a melting point of 174 °C. Also, in series [1], the Ki was 16.4 nM and the IC50 was 35 nM. In series [2], it took 228 nM to reach a half-maximal effect (EC50).

Turning to `Nc1nc(-c2ccc(NC(=O)NC3CC3)cc2)nc2c1ncn2[C@@H]1O[C@H](CO)[C@@H](O)[C@H]1O` [Compound 3, 1-{4-{6-amino-9-[(2R,3R,4S,5R)-3,4-dihydroxy-5-(hydroxymethyl)tetrahydrofuran-2-yl]-9H-purin-2-yl}phenyl}-3-cyclopropylurea], the melting point came out at 174 °C. Also, in series [1], the Ki was 15.9 nM and the IC50 is 34 nM.
